19 compounds from PubChem BioAssay AID256 (DTP/NCI, 2004) can be followed below.

Several values for one entry are separate records, joined by “and”; a condition that tells them apart may be missing. Identical values can stand only once. Toxic doses and inconclusive results are not listed.

This assay relates to CD2F1 mice, L1210 leukemia ip, survival T/C. Description: NCI In Vivo Anticancer Drug Screen. Data for tumor model L1210 Leukemia (intraperitoneal) in CD2F1 (CDF1) mice. The conditions noted are these: higher = longer survival. The method in brief: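 Antitumor effect is scored in animals hosting a serially transplanted tumor. Values compare compound-dosed animals against vehicle-only controls as a simple quotient.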

Setting [1] is: endpoint: mean survival time, dose: 100.0 mg/kg/injection, schedule: Q01DX001 (ip), vehicle: saline.
Where [2] appears, read: endpoint: mean survival time, dose: 200.0 mg/kg/injection, schedule: Q01DX001 (ip), vehicle: saline.
Setting [3] is: endpoint: mean survival time, dose: 400.0 mg/kg/injection, schedule: Q01DX001 (ip), vehicle: saline.
The mark [4] stands for this setting: endpoint: mean survival time, dose: 100.0 mg/kg/injection, schedule: Q01DX001 (ip), vehicle: saline with Tween-80.
Where [5] appears, read: endpoint: mean survival time, dose: 200.0 mg/kg/injection, schedule: Q01DX001 (ip), vehicle: saline with Tween-80.
Where [6] appears, read: endpoint: mean survival time, dose: 400.0 mg/kg/injection, schedule: Q01DX001 (ip), vehicle: saline with Tween-80.
Setting [7] is: endpoint: mean survival time, dose: 100.0 mg/kg/injection, schedule: Q01DX009 (ip), vehicle: saline with Tween-80.
[8] abbreviates: endpoint: mean survival time, dose: 200.0 mg/kg/injection, schedule: Q01DX009 (ip), vehicle: saline with Tween-80.
Setting [9] is: endpoint: mean survival time, dose: 400.0 mg/kg/injection, schedule: Q01DX009 (ip), vehicle: saline with Tween-80.
Setting [10] is: endpoint: mean survival time, dose: 100.0 mg/kg/injection, schedule: Q04DX002 (ip), vehicle: saline with Tween-80.
Setting [11] is: endpoint: mean survival time, dose: 200.0 mg/kg/injection, schedule: Q04DX002 (ip), vehicle: saline with Tween-80.
The mark [12] stands for this setting: endpoint: mean survival time, dose: 400.0 mg/kg/injection, schedule: Q04DX002 (ip), vehicle: saline with Tween-80.

As for `COc1ccc(/C=C2/N=C(C)OC2=O)cc1OC(C)=O`, the T/C is 92 % of control under setting [1], 93 % of control under setting [2] and 96 % of control under setting [3].
With `CCCCC(=O)Nc1ccc(Cl)cc1`, the T/C was 101 % of control under setting [4], 95 % of control under setting [5] and 106 % of control under setting [6].
As for `Cc1ccc([N+](=O)[O-])c2ccccc12`, the T/C is, setting by setting: under setting [7], 91 % of control; (endpoint: mean survival time, dose: 100.0 mg/kg/injection, schedule: Q04DX003 (ip), vehicle: saline with Tween-80) 88 % of control; under setting [8], 91 % of control; (endpoint: mean survival time, dose: 200.0 mg/kg/injection, schedule: Q04DX003 (ip), vehicle: saline with Tween-80) 90 % of control; under setting [9], 95 % of control; (endpoint: mean survival time, dose: 400.0 mg/kg/injection, schedule: Q04DX003 (ip), vehicle: saline with Tween-80) 94 % of control.
For the compound `COC(=O)C(C)C1CCC2C3=CC=C4CC(OC(C)=O)CCC4(C)C3=CCC21C` (stereo not drawn), the T/C runs as follows: (endpoint: mean survival time, dose: 100.0 mg/kg/injection, schedule: Q01DX001 (ip), vehicle: Klucel (hydroxypropylcellulose) (HPC)) 98 % of control; (endpoint: mean survival time, dose: 200.0 mg/kg/injection, schedule: Q01DX001 (ip), vehicle: Klucel (hydroxypropylcellulose) (HPC)) 92 % of control; (endpoint: mean survival time, dose: 400.0 mg/kg/injection, schedule: Q01DX001 (ip), vehicle: Klucel (hydroxypropylcellulose) (HPC)) 92 % of control.
For the compound `CC(C)(C)OC(=O)NNC(=O)c1ccc([N+](=O)[O-])cc1`, the T/C was 172 % of control (endpoint: mean survival time, dose: 6.25 mg/kg/injection, schedule: Q01DX009 (ip), vehicle: alcohol); 100 % of control (endpoint: mean survival time, dose: 12.5 mg/kg/injection, schedule: Q01DX009 (ip), vehicle: alcohol); 97 % of control (endpoint: mean survival time, dose: 25.0 mg/kg/injection, schedule: Q01DX009 (ip), vehicle: alcohol).
In the case of `ClC1CCC[N-]C1.ClC1CCC[N-]C1.[Cl][Pt+2][Cl]` (stereo not drawn), the T/C is, setting by setting: (endpoint: mean survival time, dose: 0.78 mg/kg/injection, schedule: Q01DX009 (ip), vehicle: saline) 103 % of control; (endpoint: mean survival time, dose: 1.56 mg/kg/injection, schedule: Q01DX009 (ip), vehicle: saline) 94 % of control; (endpoint: mean survival time, dose: 3.13 mg/kg/injection, schedule: Q01DX009 (ip), vehicle: saline) 102 % of control; (endpoint: mean survival time, dose: 6.25 mg/kg/injection, schedule: Q01DX009 (ip), vehicle: saline) 96 % of control; (endpoint: mean survival time, dose: 12.5 mg/kg/injection, schedule: Q01DX009 (ip), vehicle: saline) 89 % of control; (endpoint: mean survival time, dose: 50.0 mg/kg/injection, schedule: Q01DX009 (ip), vehicle: saline with Tween-80) 108 % of control. Also, the T/C under setting [7] was 95 % of control.
On to `COC(=O)CC1(C(=O)OC)Nc2ccc(Br)cc2C(=O)O1` (stereo not drawn), for which the T/C is 96 % of control under setting [4], 96 % of control under setting [5] and 94 % of control under setting [6].
`CN(C)C(=O)Nc1ccc(Cl)cc1`: the T/C by setting is: (endpoint: median survival time, dose: 12.5 mg/kg/injection, schedule: Q01DX009 (ip), vehicle: saline) 100 % of control; (endpoint: median survival time, dose: 25.0 mg/kg/injection, schedule: Q01DX009 (ip), vehicle: saline) 100 % of control; (endpoint: median survival time, dose: 50.0 mg/kg/injection, schedule: Q01DX009 (ip), vehicle: saline) 103 % of control; (endpoint: median survival time, dose: 100.0 mg/kg/injection, schedule: Q01DX009 (ip), vehicle: saline) 100 % of control; (endpoint: median survival time, dose: 200.0 mg/kg/injection, schedule: Q01DX009 (ip), vehicle: saline) 101 % of control; (endpoint: median survival time, dose: 400.0 mg/kg/injection, schedule: Q01DX009 (ip), vehicle: saline) 100 % of control.
In the case of `O=C(N/C=C\NC(=O)Nc1cccc(Cl)c1)Nc1cccc(Cl)c1`, the T/C under setting [10] was 90 % of control, the T/C under setting [11] was 90 % of control and the T/C under setting [12] is 98 % of control.
Regarding `Oc1ccccc1C=NCC1CCCC[N-]1.Oc1ccccc1C=NCC1CCCC[N-]1.[Ni+2]` (stereo not drawn), the T/C (endpoint: mean survival time, dose: 25.0 mg/kg/injection, schedule: Q04DX002 (ip), vehicle: saline with Tween-80) was 101 % of control; the T/C (endpoint: mean survival time, dose: 50.0 mg/kg/injection, schedule: Q04DX002 (ip), vehicle: saline with Tween-80) was 98 % of control; the T/C under setting [4] was 96 % of control; the T/C under setting [10] was 96 % of control; the T/C (endpoint: mean survival time, dose: 132.0 mg/kg/injection, schedule: Q01DX001 (ip), vehicle: saline with Tween-80) is 101 % of control; the T/C under setting [5] is 102 % of control. The T/C runs as follows: under setting [11], 101 % of control; (endpoint: mean survival time, dose: 300.0 mg/kg/injection, schedule: Q01DX001 (ip), vehicle: saline with Tween-80) 107 % of control.
Turning to `CC(=O)c1cccc(OC(=O)c2ccccc2)c1`, the T/C is, setting by setting: under setting [4], 104 % of control; under setting [7], 97 % of control; under setting [5], 94 % of control; under setting [8], 94 % of control; under setting [6], 104 % of control; under setting [9], 91 % of control.
Turning to `Cc1ccccc1OS(=O)(=O)c1ccccc1`, the T/C is, setting by setting: (endpoint: mean survival time, dose: 100.0 mg/kg/injection, schedule: Q01DX009 (ip), vehicle: acetone) 98 % of control; (endpoint: mean survival time, dose: 100.0 mg/kg/injection, schedule: Q04DX003 (ip), vehicle: acetone) 100 % of control; (endpoint: mean survival time, dose: 200.0 mg/kg/injection, schedule: Q01DX009 (ip), vehicle: acetone) 98 % of control; (endpoint: mean survival time, dose: 200.0 mg/kg/injection, schedule: Q04DX003 (ip), vehicle: acetone) 94 % of control; (endpoint: mean survival time, dose: 400.0 mg/kg/injection, schedule: Q01DX009 (ip), vehicle: acetone) 96 % of control; (endpoint: mean survival time, dose: 400.0 mg/kg/injection, schedule: Q04DX003 (ip), vehicle: acetone) 96 % of control.
`O=c1cc(O)cn[nH]1`: the T/C was 97 % of control (endpoint: mean survival time, dose: 25.0 mg/kg/injection, schedule: Q01DX009 (ip), vehicle: other); 97 % of control (endpoint: mean survival time, dose: 50.0 mg/kg/injection, schedule: Q01DX009 (ip), vehicle: other); 104 % of control (endpoint: mean survival time, dose: 100.0 mg/kg/injection, schedule: Q01DX009 (ip), vehicle: other); 102 % of control (endpoint: mean survival time, dose: 200.0 mg/kg/injection, schedule: Q01DX009 (ip), vehicle: other); 102 % of control (endpoint: mean survival time, dose: 400.0 mg/kg/injection, schedule: Q01DX009 (ip), vehicle: other).
In the case of `CC[C@@]1(OC(=O)C(N)CCCCN)C(=O)OCc2c1cc1n(c2=O)Cc2cc3ccccc3nc2-1` (stereo partly drawn), the T/C is 114 % of control (endpoint: median survival time, dose: 7.29 mg/kg/injection, schedule: Q04DX002 (ip), vehicle: water); 165 % of control and 178 % of control (endpoint: median survival time, dose: 10.94 mg/kg/injection, schedule: Q04HX004 (iv), vehicle: water); 122 % of control (endpoint: median survival time, dose: 14.58 mg/kg/injection, schedule: Q04DX002 (ip), vehicle: water); 197 % of control and 201 % of control (endpoint: median survival time, dose: 21.87 mg/kg/injection, schedule: Q04HX004 (iv), vehicle: water); 188 % of control and 204 % of control (endpoint: median survival time, dose: 29.17 mg/kg/injection, schedule: Q04DX002 (ip), vehicle: water); 231 % of control and 253 % of control (endpoint: median survival time, dose: 58.33 mg/kg/injection, schedule: Q04DX002 (ip), vehicle: water). The T/C (endpoint: median survival time, dose: 116.7 mg/kg/injection, schedule: Q04DX002 (ip), vehicle: water) was 214 % of control.
On to `C=CC(C)(C)S(=O)[O-].C[c-]1[c-][c-][c-][c-]1.[C-]#[O+].[C-]#[O+].[Fe+6]`, for which the T/C reads like this: (endpoint: mean survival time, dose: 50.0 mg/kg/injection, schedule: Q04DX002 (ip), vehicle: saline) 109 % of control; (endpoint: mean survival time, dose: 100.0 mg/kg/injection, schedule: Q04DX002 (ip), vehicle: saline) 102 % of control.
With `COc1ccccc1NC(=O)Oc1ccc(Cl)c(C)c1`, the T/C by setting is: under setting [10], 103 % of control; under setting [11], 103 % of control; under setting [12], 96 % of control.
Take `COC(=O)C1C=CCC=C1OC` (stereo not drawn): the T/C is, setting by setting: under setting [7], 113 % of control; under setting [8], 104 % of control; under setting [9], 109 % of control.
On to `CC(Sc1ccccc1)C(=O)O` (stereo not drawn), for which the T/C runs as follows: under setting [1], 98 % of control; under setting [2], 102 % of control; under setting [3], 98 % of control.
`O=C(O)CC(=O)O.[NH-]CC[NH-].[Pt+2]`: the T/C by setting is: (endpoint: mean survival time, dose: 25.0 mg/kg/injection, schedule: Q01DX009 (ip), vehicle: dextrose) 100 % of control; (endpoint: median survival time, dose: 40.0 mg/kg/injection, schedule: Q01DX009 (ip), vehicle: saline with Tween-80) 89 % of control; (endpoint: median survival time, dose: 50.0 mg/kg/injection, schedule: Q01DX001 (ip), vehicle: saline) 111 % of control.
